EC50 and MRT data for one compound are collected here from US20240247080A1, “GLP1/GIP/NPY2 RECEPTOR TRIPLE AGONISTS” (Boehringer Ingelheim International GmbH, priority 2022, published 2024).

Like-named read-outs stand apart in the source and are kept apart here.

The target of data set [1] is T1, hGLP1R (Homo sapiens, UniProt P43220).
T1 construct: expressed in transfected cells; host or cells: HEK-293 cells carrying a CRE-luciferase reporter gene
In words: hGLP1R CreLuc reporter gene assay in 0.5% and 100% plasma. It counts as cell-based. The settings on record: CreLuc reporter gene assay, 0.5% human plasma; read-out: hGLP1R 0.5% hP. A digest of the protocol:
(§1)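 HEK-293 cells co-expressing GLP-1 or NPY2 receptor and CHO cells expressing GIP receptor, each carrying a CRE-driven luciferase reporter, were stimulated with peptides for 4 hours at 37 °C. Luminescence was read after Bright-Glo addition. EC50 came from 8-point, four-decade curves fitted by variable-slope non-linear regression.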

For data set [2], the target named is T2, hGIPR (Homo sapiens, UniProt P48546).
T2 construct: expressed in transfected cells; host or cells: CHO cells carrying a CRE-luciferase reporter gene
T2 sequence (P48546 22-466): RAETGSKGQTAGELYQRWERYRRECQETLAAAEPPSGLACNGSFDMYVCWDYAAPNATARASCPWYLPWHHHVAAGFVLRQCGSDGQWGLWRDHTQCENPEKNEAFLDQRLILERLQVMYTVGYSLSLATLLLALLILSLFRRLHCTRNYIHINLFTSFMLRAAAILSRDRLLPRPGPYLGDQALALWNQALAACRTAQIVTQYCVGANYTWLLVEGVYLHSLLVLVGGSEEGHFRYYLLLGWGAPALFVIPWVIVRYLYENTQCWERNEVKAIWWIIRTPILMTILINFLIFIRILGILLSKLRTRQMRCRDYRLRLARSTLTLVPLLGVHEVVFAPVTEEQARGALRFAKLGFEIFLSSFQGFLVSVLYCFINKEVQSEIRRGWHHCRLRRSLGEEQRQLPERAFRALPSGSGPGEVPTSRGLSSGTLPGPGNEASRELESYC
In words: hGIPR CreLuc reporter gene assay in 0.5% and 100% plasma. The data set is classed as cell-based. The settings on record: CreLuc reporter gene assay. A digest of the protocol: as §1
In general terms: In a reporter assay the amount or activity of a reporter protein is the signal.

Data set [3] addresses T3, hNPY2R (Homo sapiens, UniProt P49146).
T3 construct: expressed in transfected cells; host or cells: HEK-293 cells carrying a CRE-luciferase reporter gene
T3 sequence (P49146 1-381): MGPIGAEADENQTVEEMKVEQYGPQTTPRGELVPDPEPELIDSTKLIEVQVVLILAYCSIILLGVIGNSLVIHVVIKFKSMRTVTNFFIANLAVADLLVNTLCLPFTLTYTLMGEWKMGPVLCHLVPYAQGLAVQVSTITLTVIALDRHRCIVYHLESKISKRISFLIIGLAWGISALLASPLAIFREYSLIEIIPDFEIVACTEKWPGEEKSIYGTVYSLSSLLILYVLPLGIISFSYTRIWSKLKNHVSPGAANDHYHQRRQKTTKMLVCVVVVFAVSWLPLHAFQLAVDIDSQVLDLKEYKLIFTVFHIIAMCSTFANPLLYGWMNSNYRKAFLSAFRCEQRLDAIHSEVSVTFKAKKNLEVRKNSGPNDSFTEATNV
The data set is described as follows: hNPY2R CreLuc reporter gene assay in 0.5% and 100% plasma. It counts as cell-based. The settings on record: CreLuc reporter gene assay, 0.5% human plasma; read-out: hNPY2R 0.5% hP. Summed up: as §1

Data set [4] in a line: Mouse PK after intravenous application. The note with it: plasma, mean residence time, intravenous 30-60 nmol/kg, male NMRI mice. The data set is classed as in vivo. Here is the method:
Pharmacokinetic parameters of the peptides were determined after intravenous application to NMRI mice. Male NMRI mice were obtained from Janvier Laboratories (France) weighing 30 to 40 g. Mice were housed in standard cages with a 12:12 hour light:dark cycle and standard food and water access ad libitum. Each test peptide was dissolved in 50 mM phosphate buffer (pH 7.4)/3.5% mannitol. Intravenous application of 30-60 nmol/kg was performed via the tail vein. Serial blood samples from conscious mice were collected from the saphenous vein in EDTA-containing vials at different time points up to 56 hours post-dosing. Subsequently, plasma was prepared by centrifugation for 5 min at approximately 5000 rpm and stored at −20° C. until quantification of the peptide plasma levels by liquid chromatography mass spectrometry (LC-MS). Individual plasma concentration—time profiles were analysed by a non-compartmental approach and the resulting pharmacokinetic parameters were calculated.

T1 sequence (P43220 24-463): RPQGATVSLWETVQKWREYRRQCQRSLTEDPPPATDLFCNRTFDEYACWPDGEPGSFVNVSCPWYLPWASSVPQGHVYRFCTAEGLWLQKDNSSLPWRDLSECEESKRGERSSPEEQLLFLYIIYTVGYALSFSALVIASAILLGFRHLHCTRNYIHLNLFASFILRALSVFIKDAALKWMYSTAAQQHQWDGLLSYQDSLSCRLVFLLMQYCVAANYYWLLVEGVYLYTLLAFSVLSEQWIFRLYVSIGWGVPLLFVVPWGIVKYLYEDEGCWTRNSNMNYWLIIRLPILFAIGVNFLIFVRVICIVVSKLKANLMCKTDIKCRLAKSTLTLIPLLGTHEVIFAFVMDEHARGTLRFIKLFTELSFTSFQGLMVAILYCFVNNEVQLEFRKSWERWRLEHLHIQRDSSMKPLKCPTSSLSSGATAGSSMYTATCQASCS

In general, MRT refers to the average time that molecules of a dose stay in the body. As to `CC[C@H](C)[C@H](NC(=O)[C@H](CC(C)C)NC(=O)[C@H](Cc1c[nH]c2ccccc12)NC(=O)[C@H](CCC(=O)O)NC(=O)[C@@H](NC(=O)[C@H](Cc1ccccc1)NC(=O)[C@H](CCC(=O)O)NC(=O)C(C)(C)NC(=O)[C@H](CCC(N)=O)NC(=O)[C@H](C)NC(=O)[C@H](CCC(N)=O)NC(=O)[C@H](CCCCN)NC(=O)[C@H](CCC(=O)O)NC(=O)[C@H](CC(C)C)NC(=O)C(C)(C)NC(=O)[C@@H](NC(=O)[C@H](CO)NC(=O)[C@H](Cc1ccc(O)cc1)NC(=O)[C@H](CC(=O)O)NC(=O)[C@H](CO)NC(=O)[C@@H](NC(=O)[C@H](Cc1ccccc1)NC(=O)[C@@H](NC(=O)CNC(=O)[C@H](CCC(=O)O)NC(=O)C(C)(C)NC(=O)[C@@H](N)Cc1ccc(O)cc1)[C@@H](C)O)[C@@H](C)O)[C@@H](C)CC)C(C)C)C(=O)N[C@@H](CCCCNC(=O)[C@@H](N)CCCCNC(=O)CC[C@H](NC(=O)CC[C@H](NC(=O)CC[C@H](NC(=O)CC[C@H](NC(=O)CC[C@H](NC(=O)CC[C@H](NC(=O)CCCCCCCCCCCCCCCCC(=O)O)C(=O)O)C(=O)O)C(=O)O)C(=O)O)C(=O)O)C(=O)O)C(=O)NCC(=O)NCC(=O)N1CCC[C@H]1C(=O)N[C@@H](CO)C(=O)N[C@@H](CCC(=O)O)C(=O)NCC(=O)N[C@@H](C)C(=O)N[C@@H](CO)C(=O)N[C@@H](CC(C)C)C(=O)N[C@@H](CCCNC(=N)N)C(=O)N[C@@H](Cc1c[nH]cn1)C(=O)N[C@@H](Cc1ccc(O)cc1)C(=O)N[C@@H](Cc1ccc(O)cc1)C(=O)N[C@@H](CC(N)=O)C(=O)N[C@@H](Cc1c[nH]c2ccccc12)C(=O)N[C@@H](CC(C)C)C(=O)N[C@H](C(=O)N[C@@H](CCCNC(=N)N)C(=O)N[C@@H](CCC(N)=O)C(=O)N[C@@H](CCCNC(=N)N)C(=O)N[C@@H](Cc1ccc(O)cc1)C(N)=O)[C@@H](C)O` [Compound 255, Y-Aib-E-G-T-F-T-S-D-Y-S-I-Aib-L-E-K-Q-A-Q-Aib-E-F-V-E-W-L-I-K(1,3)-GGPSEGASLRHYYNWLTRQRY-NH2.C18DA-gGlu-gGlu-gGlu-gGlu-gGlu-gGlu-eLys(1,2)], the EC50 in data set [1] is 0.34 nM; in data set [2] (0.5% human plasma, read-out: hGIPR 0.5% hP) it was 0.46 nM; in data set [2] (100% human plasma, read-out: hGIPR 100% hP), 1.23 nM; in data set [3] it was 17.3 nM. In data set [4], the MRT came to 11 h.
